Our source for the IC50 values is patent US8420824B2, “Substituted pyrazoles, compositions containing these, method of production and use” (Sanofi, priority 2006, dated 2013).

For one assay, the target named is T1, human KDR enzyme (Homo sapiens, UniProt P35968).
T1 construct: The cytoplasmic domain of the human KDR enzyme was cloned in the form of a GST fusion; GST; made in house; host or cells: SF21 insect cells (baculovirus, pFastBac)
The assay is described as follows: in vitro test of phosphorylation of substrate with the enzyme KDR (scintillation technique). In kind it is biochemical. The following applies: Table 1; unit inferred; read-out: KDR (concentration that inhibits 50% of the kinase activity). As to the method:
Determination of the Activity of the Compounds—Experimental Protocols 1. KDR
The inhibitory effect of the compounds is determined in an in vitro test of phosphorylation of substrate with the enzyme KDR via a scintillation technique (96-well plate, NEN).
The cytoplasmic domain of the human KDR enzyme was cloned in the form of a GST fusion in the pFastBac baculovirus expression vector. The protein was expressed in the SF21 cells and purified to about 60% homogeneity.
The KDR kinase activity is measured in 20 mM MOPS, 10 mM MgCl2, 10 mM MnCl2, 1 mM DTT, 2.5 mM EGTA, 10 mM b-glycerophosphate, pH=7.2, in the presence of 10 mM MgCl2, 100 μm Na3VO4, 1 mM NaF. 10 μl of the compound are added to 70 μl of kinase buffer containing 100 ng of KDR enzyme at 4° C. The reaction is initiated by adding 20 μl of solution containing 2 μg of substrate (SH2-SH3 fragment of PLCγ expressed in the form of a GST fusion protein), 2 μCi of γ^33P[ATP] and 2 μm of cold ATP. After incubation for 1 hour at 37° C., the reaction is stopped by adding 1 volume (100 μl) of 200 mM EDTA. The incubation buffer is removed, and the wells are washed three times with 300 μl of PBS. The radioactivity in each well is measured using a Top Count NXT radioactivity counter (Packard).
The background noise is determined by measuring the radioactivity in four different wells containing radioactive ATP and the substrate alone.
A total activity control is measured in four different wells containing all the reagents (γ^33P—[ATP], KDR and substrate PLCγ), but in the absence of compound.
The inhibition of the KDR activity with the compound of the invention is expressed as a percentage of inhibition of the control activity determined in the absence of compound.
Compound SU5614 (Calbiochem) (1 μM) is included in each plate as an inhibition control.

In a further assay the target is T2, human Tie2 (Homo sapiens, UniProt Q02763).
T2 construct: amino acids of the intracellular domain 776-1124; made in house; host or cells: baculovirus expression (pFastBacGT)
The assay is described as follows: test of phosphorylation of PLC with Tie2 (GST-Tie2). It is filed as biochemical. The following applies: Table 1; unit inferred; read-out: Tie2 (concentration that inhibits 50% of the kinase activity). As to the method: The coding sequence of human Tie2 corresponding to the amino acids of the intracellular domain 776-1124 was generated by PCR using the cDNA isolated from a human placenta as a model. This sequence was introduced into a pFastBacGT baculovirus expression vector in the form of a GST fusion protein.
The inhibitory effect of the molecules is determined in a test of phosphorylation of PLC with Tie2 in the presence of GST-Tie2 purified to about 80% homogeneity. The substrate is composed of the SH2-SH3 fragments of PLC expressed in the form of a GST fusion protein.
The kinase activity of Tie2 is measured in a MOPS 20 mM pH 7.2 buffer, containing 10 mM MgCl2, 10 mM MnCl2, 1 mM DTT, 10 mM of glycerophosphate. In a 96-well FlashPlate plate maintained on ice, a reaction mixture is deposited, composed of 70 μL of kinase buffer containing 100 ng of enzyme GST-Tie2 per well. Next, 10 μL of the test molecule diluted in DMSO to a maximum concentration of 10% are added. For a given concentration, each measurement is performed four times. The reaction is initiated by adding 20 μl of solution containing 2 μg of GST-PLC, 2 μm of cold ATP and 1 μCi of δ^33P[ATP]. After incubation for one hour at 37° C., the reaction is stopped by adding 1 volume (100 μl) of 200 mM EDTA. After removal of the incubation buffer, the wells are washed three times with 300 μL of PBS. The radioactivity is measured on a MicroBeta 1450 Wallac.
The inhibition of the Tie2 activity is calculated and expressed as a percentage of inhibition relative to the control activity determined in the absence of compound.

Where a name gives a salt, the structure may show the parent alone.

T1 sequence (P35968 786-1356 limits assumed): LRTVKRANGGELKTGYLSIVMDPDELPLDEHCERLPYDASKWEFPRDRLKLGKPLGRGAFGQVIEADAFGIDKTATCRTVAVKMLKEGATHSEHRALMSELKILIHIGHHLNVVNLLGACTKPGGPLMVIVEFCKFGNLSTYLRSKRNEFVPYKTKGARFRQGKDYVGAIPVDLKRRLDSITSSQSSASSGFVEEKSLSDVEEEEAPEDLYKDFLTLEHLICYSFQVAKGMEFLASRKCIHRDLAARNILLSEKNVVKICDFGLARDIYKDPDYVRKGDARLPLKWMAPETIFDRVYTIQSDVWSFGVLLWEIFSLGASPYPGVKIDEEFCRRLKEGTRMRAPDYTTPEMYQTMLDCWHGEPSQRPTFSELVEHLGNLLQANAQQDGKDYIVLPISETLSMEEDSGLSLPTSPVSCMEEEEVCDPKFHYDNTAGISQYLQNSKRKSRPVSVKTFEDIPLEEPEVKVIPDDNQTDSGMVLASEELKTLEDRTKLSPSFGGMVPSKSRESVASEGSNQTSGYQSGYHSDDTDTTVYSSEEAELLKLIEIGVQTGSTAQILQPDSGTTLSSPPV
T2 sequence (Q02763 776-1124): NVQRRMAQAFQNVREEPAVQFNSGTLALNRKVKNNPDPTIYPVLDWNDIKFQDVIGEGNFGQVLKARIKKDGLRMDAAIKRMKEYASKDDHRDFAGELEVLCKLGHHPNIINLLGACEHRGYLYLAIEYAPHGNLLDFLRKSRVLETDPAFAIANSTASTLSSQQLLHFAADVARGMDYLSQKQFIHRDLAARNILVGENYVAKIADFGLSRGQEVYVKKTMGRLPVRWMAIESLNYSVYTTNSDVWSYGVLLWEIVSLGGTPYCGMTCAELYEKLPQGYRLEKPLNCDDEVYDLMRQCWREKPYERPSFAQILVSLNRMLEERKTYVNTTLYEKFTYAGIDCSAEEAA

Consider `NC(=O)c1n[nH]cc1NCc1cccc(NC(=O)Nc2cc(F)cc(C(F)(F)F)c2)c1` [Example 7, 4-{[3-({[3-fluoro-5-(trifluoromethyl)phenyl]carbamoyl}amino)benzyl]-amino}-1H-pyrazole-3-carboxamide trifluoroacetate], for which the IC50 at human KDR enzyme was 4.5 nM; on human Tie2, 72.7 nM.

For the molecule `COc1cc(NC(=O)Nc2cccc(CNc3c[nH]nc3C(N)=O)c2)cc(OC)c1` [Example 13, 4-[(3-{[(3,5-dimethoxyphenyl)carbamoyl]amino}benzyl)amino]-1H-pyrazole-3-carboxamide trifluoroacetate], the results for the IC50 on human KDR enzyme and on human Tie2 were 11.8 nM and 1460 nM, respectively.

Consider `COC(=O)c1cccc(NC(=O)Nc2cccc(CNc3c[nH]nc3C(N)=O)c2)c1` [Example 9, Methyl 3-{[(3-{[(3-carbamoyl-1H-pyrazol-4-yl)-amino]methyl}phenyl)-carbamoyl]amino}benzoate trifluoroacetate], for which the values for the IC50 on human KDR enzyme and at human Tie2 were 21.8 nM and 4510 nM, respectively.

For `COC(=O)c1n[nH]cc1NCc1cccc(NC(=O)Nc2cc(C(F)(F)F)ccc2F)c1` [Example 32, Methyl 4-{[3-({[2-fluoro-5-(trifluoromethyl)phenyl]carbamoyl}amino)-benzyl]amino}-1H-pyrazole-3-carboxylate trifluoroacetate], the IC50 at human KDR enzyme stood at 64.1 nM; at human Tie2, 1000 nM.

Consider `NC(=O)c1n[nH]cc1NCc1cccc(NC(=O)Nc2cc(C(F)(F)F)ccc2F)c1` [Example 2a, 4-{[3-({[2-fluoro-5-(trifluoromethyl)phenyl]carbamoyl}amino)benzyl]-amino}-1H-pyrazole-3-carboxamide trifluoroacetate], for which the IC50 on human KDR enzyme was determined as 8 nM; at human Tie2, 20 nM.
